This is an account of results in patent US20250066335A1, “POLYSUBSTITUTED 4-HYDROXYPYRIDINE AND 4-HYDROXYQUINOLINE DERIVATIVES AS GPR84 ANTAGONISTS” (UNIVERSITY OF COPENHAGEN, priority 2021, published 2025).

Where a name gives a salt, the structure may show the parent alone.

For the experiment, the target named is T1, GPR84 (Homo sapiens, UniProt Q9NQS5).
T1 construct: expressed in transfected cells; host or cells: HTLA cells (HEK293 line stably expressing a tTA-dependent luciferase reporter and a β-arrestin2-TEV fusion gene), transiently transfected with PEI
T1 sequence (Q9NQS5 whole entry, the tested form may be a part): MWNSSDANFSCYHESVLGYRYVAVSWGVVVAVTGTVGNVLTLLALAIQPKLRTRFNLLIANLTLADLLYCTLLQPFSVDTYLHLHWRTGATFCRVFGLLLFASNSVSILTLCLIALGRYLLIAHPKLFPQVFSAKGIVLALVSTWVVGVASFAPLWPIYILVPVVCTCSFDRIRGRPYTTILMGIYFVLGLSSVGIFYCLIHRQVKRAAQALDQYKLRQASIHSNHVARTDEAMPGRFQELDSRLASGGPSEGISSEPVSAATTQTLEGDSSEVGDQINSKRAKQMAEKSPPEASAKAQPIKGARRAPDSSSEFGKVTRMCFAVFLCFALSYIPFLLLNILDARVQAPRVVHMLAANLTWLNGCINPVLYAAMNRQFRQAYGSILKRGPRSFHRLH
Kind of experiment: PRESTO-Tango β-arrestin2 recruitment assay, GPR84 antagonistic activity. Format: cell-based. The conditions noted are these: antagonist activity in the Presto-TANGO assay; inhibition of the response from the agonist ZQ-16 (100 nM); HTLA cells. On the procedure: PRESTO-Tango β-arrestin recruitment assay (W.K. Kroeze et al., 2015). HTLA cells (a HEK293 cell line stably expressing a tTA-dependent luciferase reporter and a β-arrestin2-TEV fusion gene) were maintained in Dulbecco's Modified Eagle's Medium (DMEM) supplemented with 10% Fetal Bovine Serum (dFBS), 100 U/mL penicillin and 100 μg/mL streptomycin, 2 μg/mL puromycin and 100 μg/mL hygromycin B in a humidified atmosphere at 37° C. in 5% CO2. For transfection, cells were plated at 9×10^6 to 10×10^6 cells per 15-cm cell-culture dish (day 1). The following day (day 2), cells were transfected by adding 5 μg DNA and 15 μg polyethylenimine (PEI) diluted in 1 mL Opti-MEM (Reduced Serum Medium supplied by ThermoFisher). On day 3, transfected cells were transferred at 25000 cells per well in 40 μl of medium into poly-l-lysine-coated and rinsed 384-well white, clear-bottomed cell-culture plates (Greiner Bio-One). On day 4, dilutions of the ligands to be tested were prepared in 1% dFBS DMEM and 10 μL were added to each well. On day 5, 20 μl per well of Bright-Glo solution (Promega) diluted 10-fold in assay buffer (Hanks' Balanced Salt Solution [HBSS], 20 mM HEPES, 1 mM CaCl2, 1 mM MgCl2, pH adjusted to 7.4 by 5 M NaOH) was added to each well. After incubation for 20 min at room temperature, luminescence was counted in an Enspire luminescence counter at 384 nm. Results in the form of relative luminescence units (RLU) were exported into Excel spreadsheets, and GraphPad Prism was used for analysis of data. To measure constitutive activity, no ligand was added on day 4.
The GPR84 antagonistic activity of the compounds was determined using the PRESTO-Tango β-arrestin2 recruitment assay (Assay I, see assays above), from which the concentration of each compound required for 50% inhibition (IC50) of the response from the agonist ZQ-16 (100 nM) was determined. The antagonistic activity for each compound is given in Table 1 as the pIC50, which is the negative log of the IC50 value when converted to molar.
A general note: Activated receptors often draw arrestin, which recruitment assays turn into a signal.
With `CCc1c(O)cc(OCC2COCCO2)nc1CCc1ccc(OCCCNC(=O)OC(C)(C)C)cc1` (stereo not shown) [Example 33, tert-Butyl (3-(4-(2-(6-((1,4-dioxan-2-yl)methoxy)-3-ethyl-4-hydroxypyridin-2-yl)ethyl)phenoxy)propyl)carbamate], the IC50 (usually the concentration at which inhibition is half-maximal) is 0.302 nM. For `CCc1c(O)cc(OCC2COCCO2)nc1CCc1ccc(OCCOCCNC(=O)OC(C)(C)C)cc1` (stereo not shown) [Example 34, tert-Butyl (2-(2-(4-(2-(6-((1,4-dioxan-2-yl)methoxy)-3-ethyl-4-hydroxypyridin-2-yl)ethyl)phenoxy)ethoxy)ethyl)carbamate], the IC50 is 0.331 nM. The IC50 values of the last two compounds are within 1.5-fold of each other.

`CCc1c(O)cc(OCC2COCCO2)nc1CCc1ccc(OCCO)cc1` (stereo not shown) [Example 35, 6-((1,4-Dioxan-2-yl)methoxy)-3-ethyl-2-(4-(2-hydroxyethoxy)phenethyl)pyridin-4-ol] had an IC50 of 0.741 nM. `CCOC(=O)CCCCOc1ccc(CCc2nc(OCC3COCCO3)cc(O)c2CC)cc1` (stereo not shown) [Example 36, Ethyl 5-(4-(2-(6-((1,4-dioxan-2-yl)methoxy)-3-ethyl-4-hydroxypyridin-2-yl)ethyl)phenoxy)pentanoate]: the IC50 was 0.257 nM. The compound `CCc1c(O)cc(OCC2COCCO2)nc1CCc1ccc(OCC(N)=O)cc1` (stereo not shown) [Example 37, 2-(4-(2-(6-((1,4-Dioxan-2-yl)methoxy)-3-ethyl-4-hydroxypyridin-2-yl)ethyl)phenoxy)acetamide] had a half-maximal inhibitory concentration (IC50) of 2.88 nM. `CCc1c(O)cc(OCC2COCCO2)nc1CCc1ccc(OCCOc2ccccc2)cc1` (stereo not shown) [Example 38, 6-((1,4-Dioxan-2-yl)methoxy)-3-ethyl-2-(4-(2-phenoxyethoxy)phenethyl)pyridin-4-ol] showed an IC50 of 0.2 nM. Against the preceding compound, the IC50 is about 14-fold lower.

Compound `CCc1c(O)cc(OCC2COCCO2)nc1CCc1ccc(OCCCS(C)(=O)=O)cc1` (stereo not shown) [Example 39, 6-((1,4-Dioxan-2-yl)methoxy)-3-ethyl-2-(4-(3-(methylsulfonyl)propoxy)phenethyl)pyridin-4-ol] showed an IC50 of 0.871 nM. The compound `CCc1c(O)cc(OCC2COCCO2)nc1CCc1ccc(OCc2nc(C)no2)cc1` (stereo not shown) [Example 40, 6-((1,4-Dioxan-2-yl)methoxy)-3-ethyl-2-(4-((3-methyl-1,2,4-oxadiazol-5-yl)methoxy)phenethyl)pyridin-4-ol] gave an IC50 of 2.95 nM. Compound `CCc1c(O)cc(OCC2COCCO2)nc1CCc1ccc(OCc2nc(C(=O)OC)co2)cc1` (stereo not shown) [Example 41, Methyl 2-((4-(2-(6-((1,4-dioxan-2-yl)methoxy)-3-ethyl-4-hydroxypyridin-2-yl)ethyl)phenoxy)methyl)oxazole-4-carboxylate] had an IC50 of 0.759 nM. In the case of `CCc1c(O)cc(OCC2COCCO2)nc1CCc1ccc(OCCN2C(=O)c3ccccc3C2=O)cc1` (stereo not shown) [Example 42, 2-(2-(4-(2-(6-((1,4-Dioxan-2-yl)methoxy)-3-ethyl-4-hydroxypyridin-2-yl)ethyl)phenoxy)ethyl)isoindoline-1,3-dione], the IC50 is 0.977 nM. `CCc1c(O)cc(OCC2COCCO2)nc1CCc1ccc(O)cc1` (stereo not shown) [Example 43, 6-((1,4-dioxan-2-yl)methoxy)-3-ethyl-2-(4-hydroxyphenethyl)pyridin-4-ol] showed an IC50 of 1.07 nM. Regarding `[2H]C([2H])([2H])C([2H])([2H])Oc1ccc(C([2H])([2H])C([2H])([2H])c2nc(OCC3COCCO3)cc(O)c2CC)cc1` (stereo not shown) [Example 44, 6-((1,4-Dioxan-2-yl)methoxy)-2-(2-(4-(ethoxy-d5)phenyl)ethyl-1,1,2,2-d4)-3-ethylpyridin-4-ol], the IC50 is 0.209 nM. The compound `CCc1c(O)cc(OCC2COCCO2)nc1CCc1ccc(OCCN)cc1` (stereo not shown) [Example 45, 6-((1,4-Dioxan-2-yl)methoxy)-2-(4-(2-aminoethoxy)phenethyl)-3-ethylpyridin-4-ol hydrochloride] had an IC50 of 2.34 nM. For `CCc1c(O)cc(OCC2COCCO2)nc1CCc1ccc(OCCCN)cc1` (stereo not shown) [Example 46, 6-((1,4-Dioxan-2-yl)methoxy)-2-(4-(3-aminopropoxy)phenethyl)-3-ethylpyridin-4-ol hydrochloride], the IC50 was 0.832 nM. This IC50 is about 2.8-fold lower than that of the compound before.

As for `CCc1c(O)cc(OCC2COCCO2)nc1CCc1ccc(OCCCCC(=O)O)cc1` (stereo not shown) [Example 47, 5-(4-(2-(6-((1,4-Dioxan-2-yl)methoxy)-3-ethyl-4-hydroxypyridin-2-yl)ethyl)phenoxy)pentanoic acid], the IC50 was 4.07 nM.

In the case of `CCc1c(O)cc(OCC2COCCO2)nc1CCc1ccc(OCc2nc(C(=O)O)co2)cc1` (stereo not shown) [Example 48, 2-((4-(2-(6-((1,4-Dioxan-2-yl)methoxy)-3-ethyl-4-hydroxypyridin-2-yl)ethyl)phenoxy)methyl)oxazole-4-carboxylic acid], the IC50 was 5.37 nM. This IC50 and that of the compound before are within 1.5-fold of each other.

Compound `CCOc1ccc(CCc2nc(OCC3COCCO3)cc(O)c2CC)cn1` (stereo not shown) [Example 49, 6-((1,4-Dioxan-2-yl)methoxy)-2-(2-(6-ethoxypyridin-3-yl)ethyl)-3-ethylpyridin-4-ol] showed an IC50 of 0.501 nM.

`CCOc1ncc(CCc2nc(OCC3COCCO3)cc(O)c2CC)cc1F` (stereo not shown) [Example 50, 6-((1,4-Dioxan-2-yl)methoxy)-2-(2-(6-ethoxy-5-fluoropyridin-3-yl)ethyl)-3-ethylpyridin-4-ol] gave an IC50 of 1.29 nM. As for `CCOc1ccc(C2CC2c2nc(OCC3COCCO3)cc(O)c2CC)cc1` (stereo not shown) [Example 51, 6-((1,4-Dioxan-2-yl)methoxy)-2-(2-(4-ethoxyphenyl)cyclopropyl)-3-ethylpyridin-4-ol], the IC50 is 87.1 nM.

In turn, `CCc1c(O)cc(OC[C@@H]2COCCO2)nc1CCc1ccc(OC)c(OC)c1` [Example 52, (S)-6-((1,4-dioxan-2-yl)methoxy)-2-(3,4-dimethoxyphenethyl)-3-ethylpyridin-4-ol] gave an IC50 of 1.26 nM. For `CCc1c(O)cc(OC[C@@H]2COCCO2)nc1CCc1ccc(OC)cc1OC` [Example 53, (S)-6-((1,4-dioxan-2-yl)methoxy)-2-(2,4-dimethoxyphenethyl)-3-ethylpyridin-4-ol], the IC50 was 0.355 nM. With `CCc1c(O)cc(OC[C@@H]2COCCO2)nc1CCc1ccc(OC)c(C#N)c1` [Example 54, (S)-5-(2-(6-((1,4-dioxan-2-yl)methoxy)-3-ethyl-4-hydroxypyridin-2-yl)ethyl)-2-methoxybenzonitrile] the figure was 1.55 nM.

On to `CCc1c(O)cc(OC[C@@H]2COCCO2)nc1CCc1ccc(OC)cc1C#N` [Example 55, (S)-2-(2-(6-((1,4-dioxan-2-yl)methoxy)-3-ethyl-4-hydroxypyridin-2-yl)ethyl)-5-methoxybenzonitrile], for which the IC50 is 0.55 nM. `CCc1c(O)cc(OC[C@@H]2COCCO2)nc1CCCCc1ccccc1` [Example 56, (S)-6-((1,4-dioxan-2-yl)methoxy)-3-ethyl-2-(4-phenylbutyl)pyridin-4-ol] had an IC50 of 23.4 nM.

As to `CCCCc1ccc(-c2nc(OC[C@@H]3COCCO3)cc(O)c2CC)cc1` [Example 57, (S)-6-((1,4-dioxan-2-yl)methoxy)-2-(4-butylphenyl)-3-ethylpyridin-4-ol], the IC50 was 120 nM. Against the preceding compound, the IC50 is about 5.1-fold higher.
